For one test, the system named is Jejunum. Kind of test: Antispasmodic activity in Oryctolagus cuniculus (rabbit) jejunum assessed as K+-induced contraction at 1 mg/ml. Type of test: functional.
The test system of the next test is Ileum. Description: Ratio IC50 for papaverine to IC50 for compound for antispasmodic activity in rat ileum. Type of test: functional.

What is called inhibition is how much of the control response was suppressed. For the compound `CO[C@]1(C)C[C@H](O)[C@@H]2[C@H](OC(=O)[C@H]2C)[C@@H]2[C@H]1C[C@@H](O)[C@@]2(C)O`, the inhibition at 1000 µg/mL in the test with Jejunum was 43.4%. Also, the “Ratio IC50” value in the test on Ileum is recorded as 0.09.
As to `C=C1CC[C@H]2O[C@]2(C)CC[C@@H]2[C@@H]1CC2(C)C` [(-)-CARYOPHYLLENE OXIDE], the inhibition at 1000 µg/mL with Jejunum came out at 31.6%. For the same compound, in the test on Ileum, the “Ratio IC50” value worked out at 0.071.
For `CO[C@]1(C)C[C@H](O)[C@@H]2[C@H](OC(=O)[C@H]2C)[C@@H]2[C@H]1CC[C@@]2(C)O` the same measures were 39.5% and 0.083.
Turning to `COc1ccc(Cc2nccc3cc(OC)c(OC)cc23)cc1OC` [PAPAVERINE], in the test on Ileum, the “Ratio IC50” value was found to be 1.
In the case of `COc1ccc(CCN(C)CCCC(C#N)(c2ccc(OC)c(OC)c2)C(C)C)cc1OC` (stereo not drawn) [VERAPAMIL], in the test with Jejunum, the inhibition at 1000 µg/mL was found to be 67.5%.

The record behind these values is ChEMBL document CHEMBL3046256, “Sesquiterpene lactones: antispasmodic principles of the freshwater algae Hydrodictyon reticulatum” (Med Chem Res, 2012).
